# Experimental data from patent US12540943B2, “Use of Acyl coenzyme A: cholesterol acyltransferase-1 in diagnosis and treatment of liver cancer” (ACADEMY OF MILITARY MEDICAL SCIENCES, priority 2018, dated 2026).
# Legend:
# [1] = system: Huh7; experiment: CCK8 experiment, proliferation of liver cancer cell line; format: cell-based, human; details: for effect on proliferation: Huh7, CCK8 growth curves 0-72 hours, inhibitor 10 μM, 20 μM
# Method: (§1) 7. CCK8 experiment 1) On the first day, after routine trypsinization and counting of cells in a 60 mm culture dish, 5000 cells/well, inoculated 4 96-well plates. 2) On the second day, after about 24 hours of culture, the cell growth was in the logarithmic phase. […] Took a 96-well plate and added 10% CCK8, 100 μl/well, and measured the OD value at 0 hour at 450 nm wavelength after 1 hour. Cell-free well was a blank background. 3) On the third day, added 10% CCK8 to a 96-well plate, and measured the OD value at 24 hours at 450 nm wavelength after 1 hour. 4) On the fourth day, added 10% CCK8 to a 96-well plate, and measured the OD value at 48 hours at 450 nm wavelength after 1 hour. 5) On the fifth day, added 10% CCK8 to a 96-well plate, and measured the OD value at 72 hours at 450 nm wavelength after 1 hour. 6) Summarized the OD values at all time points and drew growth curves. 8. Cell migration experiment
# [2] = system: MHCC97H; experiment: as above; format: cell-based, human; details: for effect on proliferation: CCK8 growth curves 0-72 hours, inhibitor 10 μM, 20 μM
# Method: as §1
# [3] = system: PLC/PRF/5; experiment: as above; format: cell-based, human
# Method: (§2) 1) On the first day, after routine trypsinization and counting of cells in a 60 mm culture dish, 5000 cells/well, inoculated 4 96-well plates.
# (§3) 2) On the second day, after about 24 hours of culture, the cell growth was in the logarithmic phase. Replaced with a new culture medium added with different concentrations of SOAT1 inhibitor, 100 μl/well, set 10 μM, 20 μM concentration group and control group respectively, the control group was 1% DMSO, each group had 3 repetitive wells. Took a 96-well plate and added 10% CCK8, 100 μl/well, and measured the OD value at 0 hour at 450 nm wavelength after 1 hour. Cell-free well was a blank background.
# (§4) 3) On the third day, added 10% CCK8 to a 96-well plate, and measured the OD value at 24 hours at 450 nm wavelength after 1 hour.
# (§5) 4) On the fourth day, added 10% CCK8 to a 96-well plate, and measured the OD value at 48 hours at 450 nm wavelength after 1 hour.
# (§6) 5) On the fifth day, added 10% CCK8 to a 96-well plate, and measured the OD value at 72 hours at 450 nm wavelength after 1 hour.
# (§7) 6) Summarized the OD values at all time points and drew growth curves. 8. Cell migration experiment
# [4] = system: HepG2; experiment: as above; format: cell-based, human; details: CCK8 growth curves 0-72 hours, inhibitor 10 μM, 20 μM or SOAT1 knockdown
# [5] = system: Cervical cancer Hela cell line; experiment: Proliferation of other tumor cell lines; format: cell-based, human; details: FIG. 7
# Method: as §2, §3, §4, §5, §6, §7
# [6] = system: breast cancer MCF7 cell line; experiment: Proliferation of other tumor cell lines; format: cell-based, human; details: MCF7, FIG. 7
# Method: as §2, §3, §4, §5, §6, §7
# [7] = system: colon cancer HCT116 cell line; experiment: Proliferation of other tumor cell lines; format: cell-based, human; details: HCT116, FIG. 7
# Method: as §2, §3, §4, §5, §6, §7
# [8] = system: esophageal cancer ECA109 cell line; experiment: Proliferation of other tumor cell lines; format: cell-based, human; details: ECA109, FIG. 7
# Method: as §2, §3, §4, §5, §6, §7
# [9] = system: leukemia Jurkat cell line; experiment: Proliferation of other tumor cell lines; format: cell-based, human; details: FIG. 7
# Method: as §2, §3, §4, §5, §6, §7
# [10] = system: non-small cell lung cancer A549 cell line; experiment: Proliferation of other tumor cell lines; format: cell-based, human; details: A549, FIG. 7
# Method: as §2, §3, §4, §5, §6, §7
# [11] = system: HepG2; experiment: Cell migration experiment (transwell); format: cell-based, human; details: 20-24 hours, Avasimibe concentration 10 μM or SOAT1 knockdown
# Method: as §7
# (§8) (1) Starving cells: Withdrew the whole medium, washed twice with PBS, and replaced with serum-free DMEM.
# (§9) (2) Added 2.5% serum of DMEM to the transwell lower chamber, 600 ul/well. Equilibrated overnight in a 37° C. incubator. Thetranswell chamber was 3422 of
# (§10) (3) Added trypsin to digest the hungry cells from yesterday (about 30-50 seconds at room temperature), quickly and carefully sucked up the trypsin, added 1 ml of complete medium, and collected in a 1.5 ml centrifuge tube;
# (§11) (4) Centrifuged at 800 rpm for 4 min; discarded the supernatant, added serum-free DMEM, and washed once; centrifuged again for 4 min at 800 rpm; discarded the supernatant and added 0.5% FBS in DMEM;
# (§12) 100 μl/well was added to the tanswell upper chamber. The third day (20-24 hours later): (6) Discarded the culture medium; (7) Fixed with anhydrous methanol for 20 minutes; (8) Air-dried the film; (9) Pinched the cotton of the cotton swab to flat and rotated it to clean the upper chamber cells. Wrapped the tweezers with a cotton ball to gently wipe off the edge cells. (10) 0.5% crystal violet staining; (11) Rinsed slowly with clean water; (12) Observed and took pictures under an inverted microscope. 9. Western blot detection was done by conventional methods. 10. Statistical analysis
# [12] = system: PLC/PRF/5; experiment: Cell migration experiment (transwell); format: cell-based, human; details: 20-24 hours, Avasimibe concentration 10 μM or SOAT1 knockdown
# Method: as §7, §8, §9, §10, §11, §12
# [13] = system: transcription factor SREBF2; experiment: Expression of cholesterol regulation and tumor invasion molecules (FIG. 8); format: cell-based
# [14] = system: extracellular uptake receptor (LDLR); experiment: as above; format: cell-based
# [15] = system: ITGAV; experiment: as above; format: cell-based
# [16] = system: ITGB4; experiment: as above; format: cell-based
# [17] = system: TGFBR1; experiment: as above; format: cell-based
"IC50 ([3]; PLC/PRF/5, FIG. 5A) [µM]","IC50 ([1]; Huh7, FIG. 5A) [µM]",IC50 ([2]; FIG. 5A) [µM],effect on expression of LDLR [14],Compound,effect on proliferation [1],effect on proliferation [2],"effect on proliferation ([3]; PLC/PRF/5, CCK8 growth curves 0-72 hours, inhibitor 10 μM, 20 μM or SOAT1 knockdown)",effect on proliferation [4],effect on proliferation [5],effect on proliferation [6],effect on proliferation [7],effect on proliferation [8],effect on proliferation [9],effect on proliferation [10],effect on migration [11],effect on migration [12],effect on expression of SREBF2 [13],effect on expression of ITGAV [15],effect on expression of ITGB4 [16],effect on expression of TGFBR1 [17]
,,,,"CSc1cc(C)nc(SC)c1NC(=O)CN1CCN(CCSc2nc3ccccc3[nH]2)CC1.Cl [K604, 2-[4-[2-(benzimidazol-2-ylthio)ethyl]piperazin-lyl]-N-[2,4-bis(methylthio)-6-methyl-3-pyridyl]acetamide]",significantly inhibited the proliferation,significantly inhibited the proliferation,,,,,,,,,,,,,,
6.9,6.8,25.2,significantly inhibit the expression,Avasimibe,significantly inhibit the proliferation,significantly inhibit the proliferation,significantly inhibit the proliferation,significantly inhibit the proliferation,significantly inhibited the proliferation,significantly inhibited the proliferation,significantly inhibited the proliferation,significantly inhibited the proliferation,significantly inhibited the proliferation,significantly inhibited the proliferation,significantly reduce the migration,significantly reduce the migration,significantly inhibit the expression,significantly inhibit the expression,significantly inhibit the expression,significantly inhibit the expression
